Experimental data: US20260085069A1, “PRODRUGS” (Cambridge Enterprise Limited, priority 2022, published 2026)
Values after ≈ are worked out from the molar mass of the structure shown.

Tests used:
[1] = Stability in aqueous media (FaSSIF, SGF, PBS); assay type: physicochemical; details: for FaSSIF (pH 6.5) % remaining 1 h / FaSSIF (pH 6.5) % remaining 6 h / FaSSIF (pH 6.5) % remaining 24 h: FaSSIF pH 6.5, 37° C.; for PBS (pH 7.4) % remaining 1 h / PBS (pH 7.4) % remaining 6 h / PBS (pH 7.4) % remaining 24 h: PBS pH 7.4, 37° C.; for SGF (pH 1.2) % remaining 1 h / SGF (pH 1.2) % remaining 6 h / SGF (pH 1.2) % remaining 24 h: SGF pH 1.2, 37° C.
Protocol: 10 μL of a 10 mM stock solution of the Examples were dissolved in 490 μL DMSO to afford […] working solution SGF (pH 1.2):
Dissolve 0.04 g NaCl and 0.064 g pepsin in 0.14 mL HCl and add sufficient water to 20 mL volume. The pH of the test solution was 1.20±0.05.
0.056% (w/v) lecithin, 0.161% (w/v) sodium taurocholate, 0.39% (w/v) monobasic potassium phosphate, 0.77% (w/v) potassium chloride, deionized H2O. The pH of the test solution was 6.5±0.05.
30 mL of 10×PBS (pH7.4) was added into a 50 mL flask and diluted with water. The solution was mixed well and adjusted to pH 7.4 with 1 N HCl.
2 μL of the 200 μL working solution of the Examples was added into 96-deep-well plates for TO, T60, T120, T360 and T1440 timepoints. Duplicates were prepared.
Stability studies were commenced by the addition of 198 μL of the required media (e.g. Simulated Gastric Fluid pH 1.2 [SGF], Simulated Fasted State Intestinal Fluid pH 6.5 [FaSSIF]) and Phosphate Buffered Saline pH 7.4 [PBS]) to each well except TO. The samples were incubated at 37° C. at 600 rpm for the appointed time. The samples at the corresponding timepoint were removed and immediately mixed with 400 μL of cold acetonitrile containing 200 ng/mL tolbutamide and labetalol (internal standard). The samples were centrifuged at 4000 rpm at 4° C. for 20 minutes. 60 μL of the supernatant was removed and mixed with 180 μL purified water and thoroughly mixed and analysed by LCMS (Shimadzu LC 30-AD, ACQUITY UPLC BEH Phenyl 1.7 um 2.1*50 mm Part No. 186002884, with mobile phase A: 0.1% formic acid in water, mobile phase B: 0.1% formic acid in acetonitrile). Formation of parent was also monitored as a metabolite.
Samples were analysed by Mass Spectrometry QTRAP 6500+.

[2] = assay type: in vitro ADME; details: rat plasma, 37° C.
Protocol: 5 μL of a 10 mM stock solution of the Examples were dissolved in 495 μL DMSO to afford 500 μL working solution Assay procedure:
98 μL plasma was added to each well of a 96-well reaction plate, using one plate per timepoint (Blank, TO, T10, T30, T60, and T120). 2 μL of working solution was added to each well of the reaction plates except Blank. Each plate was incubated at 37° C. for the indicated timepoint (0, 10, 30, 60, 120 minutes). At the end of incubation, 400 μL of stop solution (200 ng/mL tolbutamide and 200 ng/mL labetalol in 0.1% FA in ACN) was added to precipitate protein. The plates were then sealed and shaken for 20 minutes before centrifugation at 4000 rpm for 20 minutes. […] Formation of parent was also monitored as a metabolite.

[3] = Solubility in simulated fluids (kinetic solubility, 24 hours); assay type: physicochemical; details: thermodynamic from solid, 24 hour timepoint, room temperature
Protocol: A known quantity of the Examples and control compounds were weighed into a suitable vessel (whatman miniuniprep vials) and a known volume of the required media was added (e.g. Simulated Gastric Fluid pH 1.2 [SGF], Simulated Fasted State Intestinal Fluid pH 6.5 [FaSSIF] or Phosphate Buffered Saline pH 7.4 [PBS]). The samples were subjected to vortex mixing for 2 minutes followed by agitation on a shaker for 24 hours at room temperature at 800 rpm.

[4] = simulated gastric fluid, SGF (pH 1.2)

## CC(C)(C)OC(=O)OCOC(=O)c1ccc2c(c1)nc(OCCOCCCCNCc1cc(F)c(OC(F)(F)F)c(F)c1)c1ccncc12 [Example 15, ((tert-butoxycarbonyl)oxy)methyl 5-(2-(4-((3,5-difluoro-4-(trifluoromethoxy)benzyl)amino)butoxy)ethoxy)benzo[c][2,6]naphthyridine-8-carboxylate]
[1]
  FaSSIF (pH 6.5) % remaining 1 h: 99.0%
  FaSSIF (pH 6.5) % remaining 6 h: 97.9%
  FaSSIF (pH 6.5) % remaining 24 h: 98.6%
  PBS (pH 7.4) % remaining 1 h: 100.3%
  PBS (pH 7.4) % remaining 6 h: 49.7%
  PBS (pH 7.4) % remaining 24 h: 7.9%
  SGF (pH 1.2) % remaining 1 h: 47.5%
  SGF (pH 1.2) % remaining 6 h: 3.8%
  SGF (pH 1.2) % remaining 24 h: 1.8%

## CN(C)CCOC(=O)c1ccc2c(c1)nc(OCCOCCCCNCc1cc(F)c(OC(F)(F)F)c(F)c1)c1ccncc12 [Example 3, 2-(dimethylamino)ethyl 5-(2-(4-((3,5-difluoro-4-(trifluoromethoxy)benzyl)amino)butoxy)ethoxy)benzo[c][2,6]naphthyridine-8-carboxylate]
[1]
  FaSSIF (pH 6.5) % remaining 1 h: 102.2%
  FaSSIF (pH 6.5) % remaining 6 h: 101.8%
  FaSSIF (pH 6.5) % remaining 24 h: 98.6%
  PBS (pH 7.4) % remaining 1 h: 71.8%
  PBS (pH 7.4) % remaining 6 h: 17.8%
  PBS (pH 7.4) % remaining 24 h: 1.3%
  SGF (pH 1.2) % remaining 1 h: 90.6%
  SGF (pH 1.2) % remaining 6 h: 76.1%
  SGF (pH 1.2) % remaining 24 h: 33.5%
[2]
  % Example remaining 0 min: 100.0%
  Example concentration (nM) 0 min: 1830.9 nM
  % Example remaining 10 min: 0.1%
  Example concentration (nM) 10 min: 2.7 nM

## COC(=O)c1ccc2c(c1)nc(OCCOCCCCNCc1cc(F)c(OC(F)(F)F)c(F)c1)c1ccncc12 [Example 4, methyl 5-(2-(4-((3,5-difluoro-4-(trifluoromethoxy)benzyl)amino)butoxy)ethoxy)benzo[c][2,6]naphthyridine-8-carboxylate]
[1]
  FaSSIF (pH 6.5) % remaining 1 h: 90.0%
  FaSSIF (pH 6.5) % remaining 6 h: 86.6%
  FaSSIF (pH 6.5) % remaining 24 h: 93.3%
  PBS (pH 7.4) % remaining 1 h: 70.3%
  PBS (pH 7.4) % remaining 6 h: 22.4%
  PBS (pH 7.4) % remaining 24 h: 7.9%
  SGF (pH 1.2) % remaining 1 h: 93.7%
  SGF (pH 1.2) % remaining 6 h: 63.7%
  SGF (pH 1.2) % remaining 24 h: 16.5%

## O=C(OCOC(=O)c1ccc2c(c1)nc(OCCOCCCCNCc1cc(F)c(OC(F)(F)F)c(F)c1)c1ccncc12)OC1CCOCC1 [Example 16, ((((tetrahydro-2H-pyran-4-yl)oxy)carbonyl)oxy)methyl 5-(2-(4-((3,5-difluoro-4-(trifluoromethoxy)benzyl)amino)butoxy)ethoxy)benzo[c][2,6]naphthyridine-8-carboxylate]
[1]
  FaSSIF (pH 6.5) % remaining 1 h: 95.5%
  FaSSIF (pH 6.5) % remaining 6 h: 104.4%
  FaSSIF (pH 6.5) % remaining 24 h: 95.7%
  PBS (pH 7.4) % remaining 1 h: 93.8%
  PBS (pH 7.4) % remaining 6 h: 37.9%
  PBS (pH 7.4) % remaining 24 h: 7.1%
  SGF (pH 1.2) % remaining 1 h: 95.4%
  SGF (pH 1.2) % remaining 6 h: 63.0%
  SGF (pH 1.2) % remaining 24 h: 19.4%
[3]; [4]
  solubility kinetic at 24 h: 39.4 µg/mL (≈ 54.4 µM)
[3]; FaSSIF (pH 6.5)
  solubility kinetic at 24 h: 99.4 µg/mL (≈ 137 µM)
[2]
  % Example remaining 0 min: 100.0%
  Example concentration (nM) 0 min: 1845.9 nM
  % Example remaining 10 min: 0.1%
  Example concentration (nM) 10 min: 2.7 nM

## CC(C)C(=O)OCOC(=O)c1ccc2c(c1)nc(OCCOCCCCNCc1cc(F)c(OC(F)(F)F)c(F)c1)c1ccncc12 [Example 5, (isobutyryloxy)methyl 5-(2-(4-((3,5-difluoro-4-(trifluoromethoxy)benzyl)amino)butoxy)ethoxy)benzo[c][2,6]naphthyridine-8-carboxylate]
[1]
  FaSSIF (pH 6.5) % remaining 1 h: 100.2%
  FaSSIF (pH 6.5) % remaining 6 h: 97.5%
  FaSSIF (pH 6.5) % remaining 24 h: 98.8%
  PBS (pH 7.4) % remaining 1 h: 76.2%
  PBS (pH 7.4) % remaining 6 h: 7.9%
  PBS (pH 7.4) % remaining 24 h: 2.4%
  SGF (pH 1.2) % remaining 1 h: 87.0%
  SGF (pH 1.2) % remaining 6 h: 55.5%
  SGF (pH 1.2) % remaining 24 h: 13.0%

## CC(C)(C)C(=O)OCOC(=O)c1ccc2c(c1)nc(OCCOCCCCNCc1cc(F)c(OC(F)(F)F)c(F)c1)c1ccncc12 [Example 6, (pivaloyloxy)methyl 5-(2-(4-((3,5-difluoro-4-(trifluoromethoxy)benzyl)amino)butoxy)ethoxy)benzo[c][2,6]naphthyridine-8-carboxylate]
[1]
  FaSSIF (pH 6.5) % remaining 1 h: 112.8%
  FaSSIF (pH 6.5) % remaining 6 h: 97.0%
  FaSSIF (pH 6.5) % remaining 24 h: 109.4%
  PBS (pH 7.4) % remaining 1 h: 85.2%
  PBS (pH 7.4) % remaining 6 h: 27.7%
  PBS (pH 7.4) % remaining 24 h: 5.1%
  SGF (pH 1.2) % remaining 1 h: 88.8%
  SGF (pH 1.2) % remaining 6 h: 59.8%
  SGF (pH 1.2) % remaining 24 h: 20.0%
[2]
  % Example remaining 0 min: 100.0%
  Example concentration (nM) 0 min: 1779.1 nM
  % Example remaining 10 min: 0.3%
  Example concentration (nM) 10 min: 5.0 nM

## Cc1oc(=O)oc1COC(=O)c1ccc2c(c1)nc(OCCOCCCCNCc1cc(F)c(OC(F)(F)F)c(F)c1)c1ccncc12 [Example 7, (5-methyl-2-oxo-1,3-dioxol-4-yl)methyl 5-(2-(4-((3,5-difluoro-4-(trifluoromethoxy)benzyl)amino)butoxy)ethoxy)benzo[c][2,6]naphthyridine-8-carboxylate]
[1]
  FaSSIF (pH 6.5) % remaining 1 h: 101.0%
  FaSSIF (pH 6.5) % remaining 6 h: 93.5%
  FaSSIF (pH 6.5) % remaining 24 h: 89.1%
  PBS (pH 7.4) % remaining 1 h: 78.9%
  PBS (pH 7.4) % remaining 6 h: 16.7%
  PBS (pH 7.4) % remaining 24 h: 0.7%
  SGF (pH 1.2) % remaining 1 h: 98.9%
  SGF (pH 1.2) % remaining 6 h: 67.2%
  SGF (pH 1.2) % remaining 24 h: 26.9%
[3]; [4]
  solubility kinetic at 24 h: 18.5 µg/mL (≈ 27.3 µM)
[3]; FaSSIF (pH 6.5)
  solubility kinetic at 24 h: 76.1 µg/mL (≈ 112 µM)
[2]
  % Example remaining 0 min: 100.0%
  Example concentration (nM) 0 min: 1887.9 nM
  % Example remaining 10 min: 0.1%
  Example concentration (nM) 10 min: 1.2 nM

## CC(C)OC(=O)c1ccc2c(c1)nc(OCCOCCCCNCc1cc(F)c(OC(F)(F)F)c(F)c1)c1ccncc12 [Example 2, isopropyl 5-(2-(4-((3,5-difluoro-4-(trifluoromethoxy)benzyl)amino)butoxy)ethoxy)benzo[c][2,6]naphthyridine-8-carboxylate]
[1]
  FaSSIF (pH 6.5) % remaining 1 h: 95.4%
  FaSSIF (pH 6.5) % remaining 6 h: 80.5%
  FaSSIF (pH 6.5) % remaining 24 h: 87.2%
  PBS (pH 7.4) % remaining 1 h: 74.5%
  PBS (pH 7.4) % remaining 6 h: 31.0%
  PBS (pH 7.4) % remaining 24 h: 11.5%
  SGF (pH 1.2) % remaining 1 h: 97.1%
  SGF (pH 1.2) % remaining 6 h: 57.9%
  SGF (pH 1.2) % remaining 24 h: 19.6%

## COC(=O)OCOC(=O)c1ccc2c(c1)nc(OCCOCCCCNCc1cc(F)c(OC(F)(F)F)c(F)c1)c1ccncc12 [Example 11, ((methoxycarbonyl)oxy)methyl 5-(2-(4-((3,5-difluoro-4-(trifluoromethoxy)benzyl)amino)butoxy)ethoxy)benzo[c][2,6]naphthyridine-8-carboxylate]
[1]
  FaSSIF (pH 6.5) % remaining 1 h: 96.4%
  FaSSIF (pH 6.5) % remaining 6 h: 97.5%
  FaSSIF (pH 6.5) % remaining 24 h: 105.9%
  PBS (pH 7.4) % remaining 1 h: 81.2%
  PBS (pH 7.4) % remaining 6 h: 29.3%
  PBS (pH 7.4) % remaining 24 h: 19.0%
  SGF (pH 1.2) % remaining 1 h: 100.2%
  SGF (pH 1.2) % remaining 6 h: 66.3%
  SGF (pH 1.2) % remaining 24 h: 21.5%
